Source: US20260365732A1, “METHODS OF TREATING CANCER IN SUBJECTS WITH PRIOR IMMUNE CHECKPOINT INHIBITOR EXPOSURE” (Curis, Inc., priority 2023, published 2026)

What was measured:
[1] = test system: bone marrow (BM) blasts; assay: Clinical study of emavusertib (Compound 1) on bone marrow (BM) blasts in AML / hrMDS patients with vs without prior immune checkpoint inhibitor exposure (FIG. 1A, FIG. 1B); format: in vivo, human
Description: FIG. 1A is a graph showing the results of a clinical study for the efficacy of emavusertib (Compound 1) administration on reducing bone marrow (BM) blasts in patients with blood cancer. Blasts are immature white blood cells that are usually found in small numbers in healthy bone marrow. High levels of blasts circulating in the blood are associated with cancer. This clinical study measured the change in blast levels before and after receiving Compound 1 treatment. Here, the relative change in blast levels before and after Compound 1 is compared between patients who had previously received immune checkpoint inhibitors in prior treatment and patients who were naïve to immune checkpoint inhibitors. The comparison groups each contain at least 5 high risk myelodysplastic syndrome (hrMDS) patients and 1 acute myeloid leukemia (AML) patient.
FIG. 1B is a graph showing baseline and best post-treatment blast levels of the subjects in FIG. 1A. […] Each patient is shaded according to their diagnosis.
To support the development of effective treatment regimens with Compound 1, a study was conducted to monitor bone marrow (BM) samples obtained from AML and high risk MDS patients with different prior histories of treatment. […] The present disclosure relates to methods of treating cancer with Compound 1 and other IRAK4 inhibitors or degraders, wherein the subject has a history of treatment with an immune checkpoint inhibitor.
This is a Phase 1, open-label dose escalation and cohort expansion study of Compound 1 as a monotherapy in patients with AML or MDS and in combination with AZA in treatment-naïve, adult patients with AML or hrMDS or in combination with VEN in patients with relapsed/refractory AML or hrMDS, after first line therapy.

[2] = Study Compound 1-101 (safety, drug exposure, biologic activity and clinical efficacy at 200 mg BID); format: in vivo, human
Description: Three patients with AML or MDS will be enrolled at the designated dose. If none of the first 3 patients experience a dose-limiting toxicity during the first cycle, patients may be enrolled into the next higher dose level. If 1 patient out of the first 3 experiences a dose-limiting toxicity, the dose level may be expanded with an additional 3 patients.

Structure (SMILES): Cc1cc(-c2nc(C(=O)Nc3cc4oc(N5CCOCC5)nc4nc3N3CC[C@@H](O)C3)co2)ccn1 [Compound 1, emavusertib]
- rate of response, as evidenced by reduced BM blast counts in hematology ([1]; AML and high risk MDS patients, history of treatment with an immune checkpoint inhibitor vs no prior exposure): higher rate of response
- relative change in blast levels before and after Compound 1 ([1]; patients with prior immune checkpoint inhibitors (magrolimab, ipilimumab, or nivolumab + ipilimumab) vs not previously exposed, each group at least 5 hrMDS and 1 AML patient, FIG. 1A): significant reduction in blasts
- change in bone marrow blast counts from baseline to best post-baseline ([1]; prior immune checkpoint inhibitor exposure compared to no prior exposure, FIG. 1B): higher decreases in bone marrow blast counts
- baseline vs best post-baseline bone marrow blasts counts ([1]; prior immune checkpoint inhibitor exposure vs without exposure, FIG. 1A): significant difference
- biologic activity and clinical efficacy [2]: signs of biologic activity and clinical efficacy
- safety of starting dose level [2]: safe
